Values quoted from earlier work, collected in US20030162725A1, “Synergistic pharmaceutical combinations for treating obesity with EGCG” (priority 2002, published 2003).

System: mouse

**Q.** For N[C@@H](Cc1c[nH]c2ccc(O)cc12)C(=O)O [5-HTP, 5-hydroxytryptophan], which LD50 i.p. (i.p., species not restated (studies in the rat and mouse)) is on record?
**A.** 1400 mg/kg

**Q.** What about the LD50 per os (per os in the mouse) of the same compound?
**A.** 2500 mg/kg
